# From patent US20250026721A1, “COMPOUNDS AND METHODS FOR MODULATING RAS-PI3K” (Vividion Therapeutics, Inc., priority 2023, published 2025)
# What was measured:
# [1] = system: pAKT(S473) in H358 cell line; test: In vitro Phospho-AKT(S473) HTRF analysis in H358 cells; assay type: cell-based; conditions: for IC50 / Emax: Homo sapiens, NCI-H358, 0.5 h; for IC50: H358 cells, 30 minutes at 37° C.; for Emax: read-out: H358 pAKT Imax % control
# Description: Example 5. In Vitro Phosgho-AKT(S473) Analysis
# Functional activity of the compounds to inhibit pAKT were assessed in FaDu or H358 cell lines as indicated below.
# • Complete Media • FBS, Corning catalog #35-010-CV • Anti-Anti, Gibco catalog #15240-062 • 96 well plate, Corning catalog #3610 • TrypLE, Gibco catalog #12604013 • Phospho-AKT(S473) HTRF kit, Cisbio catalog #64AKSPET
# Cells were detached from the tissue culture flask with TrypLE. The cells were pelleted at 500×g for 5 min, TrypLe was removed and then resuspended in the necessary volume of media+1% FBS to give the appropriate cell density (17,500 cells/mL for FaDu; 20,000 cells/mL for H358). 100 μL of cell suspension/well was dispensed into the 96-well plate while keeping the outer wells of the plate free of cells and filled with PBS to prevent evaporation of interior wells. The plate was incubated at 37° C. and allowed to adhere overnight. The cells were treated with a dose response of compound and incubated at 37° C. for 30 minutes. The cells were then processed and pAKT(S473) levels were assessed following the specifications of the Cisbio HTRF kit.
# [2] = system: pAKT(S473) in FaDu cell line; test: In vitro Phospho-AKT(S473) HTRF analysis in FaDu cells; assay type: cell-based; conditions: for IC50 / Emax: Homo sapiens, 0.5 h; for IC50: FaDu cells, 30 minutes at 37° C.; for Emax: FaDu, read-out: FaDu pAKT Imax % control
# Outline: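 FaDu or H358 cells were plated overnight in medium with 1% FBS, then exposed to a compound dose response for 30 minutes at 37° C. Phospho-AKT(S473) levels were measured by HTRF.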
# PIK3CA = biological target: T1, PIK3CA (Homo sapiens, UniProt P42336); test: In vitro ELISA target engagement assay for PIK3CA in Jurkat cellular lysate (competition with PIK3CA Biotin Probe); assay type: binding; conditions: 1 hour at rt, then 500 nM PIK3CA Biotin Probe, read-out: Elisa Target Engagement Assay (TE50)
# T1 construct: endogenous in cells; host or cells: Jurkat cell lysate
# Outline: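 Competition format in Jurkat lysate: compound (serial dilutions, top 200 μM) for 1 h at rt, then 500 nM final biotinylated PIK3CA probe for 1 h at rt. Sandwich ELISA with capture antibody and Neutravidin-HRP luminescence read-out measured probe-labelled PIK3CA, giving TE50.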
# PIK3CA_C242 = biological target: T2, PIK3CA_C242 (Homo sapiens, UniProt P42336); test: Proteomic TE50 (IA-DTB / TMT mass spectrometry) in Jurkat cell lysate; assay type: binding; conditions: 1 hour at rt, 7-point dose response
# T2 construct: endogenous in cells; host or cells: Jurkat cell lysate
# Outline: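 Cysteine engagement was read by targeted TMT MS3 of the IA-DTB-labelled, streptavidin-enriched C242 tryptic peptide. Beforehand, Jurkat lysate was exposed to a 7-point 1:5 compound series for 1 h at rt, then to 200 μM IA-DTB for 1 h. Reporter S/N curves gave TE50.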
# T1 sequence (P42336 whole entry): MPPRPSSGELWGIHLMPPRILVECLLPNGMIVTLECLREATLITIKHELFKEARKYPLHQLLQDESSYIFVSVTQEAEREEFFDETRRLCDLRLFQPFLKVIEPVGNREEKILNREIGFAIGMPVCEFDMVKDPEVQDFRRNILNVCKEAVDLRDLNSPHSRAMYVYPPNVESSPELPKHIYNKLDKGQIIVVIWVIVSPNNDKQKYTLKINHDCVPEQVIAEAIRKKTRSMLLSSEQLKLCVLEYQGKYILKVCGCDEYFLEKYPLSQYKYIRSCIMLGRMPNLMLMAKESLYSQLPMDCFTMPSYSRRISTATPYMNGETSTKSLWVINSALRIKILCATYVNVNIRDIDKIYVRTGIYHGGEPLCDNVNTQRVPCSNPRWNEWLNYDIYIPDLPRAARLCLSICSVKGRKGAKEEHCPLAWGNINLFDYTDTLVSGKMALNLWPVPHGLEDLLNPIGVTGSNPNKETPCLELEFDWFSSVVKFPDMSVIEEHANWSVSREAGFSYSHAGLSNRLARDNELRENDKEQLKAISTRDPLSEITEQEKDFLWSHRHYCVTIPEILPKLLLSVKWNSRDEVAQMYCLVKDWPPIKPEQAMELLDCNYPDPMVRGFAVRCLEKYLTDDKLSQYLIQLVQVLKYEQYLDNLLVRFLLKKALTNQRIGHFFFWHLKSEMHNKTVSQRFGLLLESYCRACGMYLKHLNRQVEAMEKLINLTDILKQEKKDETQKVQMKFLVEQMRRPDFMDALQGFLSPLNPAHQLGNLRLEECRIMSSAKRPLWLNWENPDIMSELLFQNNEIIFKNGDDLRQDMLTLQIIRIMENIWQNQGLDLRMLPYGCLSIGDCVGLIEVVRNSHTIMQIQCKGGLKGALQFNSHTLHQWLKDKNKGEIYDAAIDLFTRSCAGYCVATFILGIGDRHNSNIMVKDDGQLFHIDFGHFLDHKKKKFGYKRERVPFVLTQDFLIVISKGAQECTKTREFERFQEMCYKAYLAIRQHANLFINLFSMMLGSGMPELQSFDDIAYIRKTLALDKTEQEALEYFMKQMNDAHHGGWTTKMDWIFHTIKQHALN
# T1 sequence (P27986 whole entry partner): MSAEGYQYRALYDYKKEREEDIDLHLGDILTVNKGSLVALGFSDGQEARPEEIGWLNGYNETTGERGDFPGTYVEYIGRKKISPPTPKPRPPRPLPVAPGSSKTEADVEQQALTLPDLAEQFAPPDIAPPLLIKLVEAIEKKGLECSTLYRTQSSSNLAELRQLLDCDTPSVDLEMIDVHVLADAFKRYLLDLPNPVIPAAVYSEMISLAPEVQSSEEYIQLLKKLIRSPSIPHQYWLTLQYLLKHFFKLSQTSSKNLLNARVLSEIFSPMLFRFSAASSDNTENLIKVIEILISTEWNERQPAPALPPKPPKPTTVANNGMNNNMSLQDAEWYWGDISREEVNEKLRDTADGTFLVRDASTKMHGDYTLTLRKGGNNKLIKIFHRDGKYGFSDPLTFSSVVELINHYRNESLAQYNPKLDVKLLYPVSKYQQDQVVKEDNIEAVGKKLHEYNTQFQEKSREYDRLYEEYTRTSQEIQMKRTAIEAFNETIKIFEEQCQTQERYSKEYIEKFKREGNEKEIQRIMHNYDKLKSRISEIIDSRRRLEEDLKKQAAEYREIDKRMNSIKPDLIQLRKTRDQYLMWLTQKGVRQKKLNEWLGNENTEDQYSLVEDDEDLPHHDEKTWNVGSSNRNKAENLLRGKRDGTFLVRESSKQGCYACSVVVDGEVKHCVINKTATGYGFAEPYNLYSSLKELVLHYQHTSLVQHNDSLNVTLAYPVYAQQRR
# T2 sequence (P42336 whole entry): as the sequence (P42336 whole entry) above
# T2 sequence (P27986 whole entry partner): as the sequence (P27986 whole entry partner) above
SMILES,IC50 [1] [nM],IC50 [2] [nM],IC50 (PIK3CA) [nM],IC50 (PIK3CA_C242) [nM],Emax [1] [%],Emax [2] [%],"absolute inhibition of pAKT ([1]; H358 cell line, internal standard, variation between runs)","absolute inhibition of pAKT ([2]; FaDu cell line, internal standard, variation between runs)"
"Cc1ccc([C@@H]2CN(CC(F)(F)F)C[C@@H]2C(=O)N2CCC[C@](F)(C(=O)N[C@H](C)/C=C\S(C)(=O)=O)CC2)c(Cl)c1 (single isomer, unassigned) [Compound 169, (R)-1-((3*R,4*R)-4-(2-chloro-4-methylphenyl)-1-(2,2,2-trifluoroethyl)pyrrolidine-3-carbonyl)-4-fluoro-N—((R,Z)-4-(methylsulfonyl)but-3-en-2-yl)azepane-4-carboxamide]",202,154,210,,106,108,,
"C[C@H](/C=C\S(C)(=O)=O)NC(=O)[C@@]1(F)CCCN(C(=O)[C@@H]2CN(CC(F)(F)F)C[C@@H]2c2c(F)cc(F)cc2Cl)CC1 (single isomer, unassigned) [Compound 227, (R)-1-((3*S,4*S)-4-(2-chloro-4,6-difluorophenyl)-1-(2,2,2-trifluoroethyl)pyrrolidine-3-carbonyl)-4-fluoro-N-((R,Z)-4-(methylsulfonyl)but-3-en-2-yl)azepane-4-carboxamide]",250,,340,,102,,,
"C[C@H](/C=C\S(C)(=O)=O)NC(=O)[C@@]1(F)CCCCN(C(=O)[C@H]2CN(CC(F)(F)F)C[C@H]2c2ccccc2Cl)CC1 (single isomer, unassigned) [Compound 272, (*R)-1-((3R,4R)-4-(2-chlorophenyl)-1-(2,2,2-trifluoroethyl)pyrrolidine-3-carbonyl)-4-fluoro-N-((R,Z)-4-(methylsulfonyl)but-3-en-2-yl)azocane-4-carboxamide]",694,,880,,89.8,,,
"C[C@H](/C=C\S(C)(=O)=O)NC(=O)[C@]1(F)CCN(C(=O)[C@H]2CN(CC(F)(F)F)C[C@H]2c2ccccc2Cl)[C@@H](C)C1 (single isomer, unassigned) [Compound 302, (2*S,4*S)-1-((3R,4R)-4-(2-chlorophenyl)-1-(2,2,2-trifluoroethyl)pyrrolidine-3-carbonyl)-4-fluoro-2-methyl-N-((R,Z)-4-(methylsulfonyl)but-3-en-2-yl)piperidine-4-carboxamide]",464,696,440,,87.2,101,,
"C[C@H](/C=C\S(C)(=O)=O)NC(=O)C1(F)CCN(S(=O)(=O)c2ccc(Br)cc2-c2ccccc2Cl)CC1 [Compound 47, 1-[4-bromo-2-(2-chlorophenyl)phenyl]sulfonyl-4-fluoro-N—[(Z,1R)-1-methyl-3-methylsulfonyl-allyl]piperidine-4-carboxamide]",,96.5,,,,100,40-89%,43-98%
"C[C@H](/C=C\S(C)(=O)=O)NC(=O)[C@@]1(F)CCCN(C(=O)[C@H]2CN(CC(F)(F)F)C[C@H]2c2ccccc2Cl)CC1 [Compound 165, (R)-1-((3R,4R)-4-(2-chlorophenyl)-1-(2,2,2-trifluoroethyl)pyrrolidine-3-carbonyl)-4-fluoro-N—((R,Z)-4-(methylsulfonyl)but-3-en-2-yl)azepane-4-carboxamide]",115,214,164,,95.7,96.7,,
"C[C@H](/C=C\S(C)(=O)=O)NC(=O)C1(F)CCN(C(=O)[C@H]2CN(CC(C)(F)F)C[C@H]2c2ccccc2Cl)CC1 [Compound 179, 1-((3R,4R)-4-(2-chlorophenyl)-1-(2,2-difluoropropyl)pyrrolidine-3-carbonyl)-4-fluoro-N-((R,Z)-4-(methylsulfonyl)but-3-en-2-yl)piperidine-4-carboxamide]",165,,390,,106,,,
"C[C@H](/C=C\S(C)(=O)=O)NC(=O)[C@@]1(F)CCCN(C(=O)[C@H]2CN(CC3(F)CC3)C[C@H]2c2ccccc2Cl)CC1 [Compound 185, (R)-1-((3R,4R)-4-(2-chlorophenyl)-1-((1-fluorocyclopropyl)methyl)pyrrolidine-3-carbonyl)-4-fluoro-N-((R,Z)-4-(methylsulfonyl)but-3-en-2-yl)azepane-4-carboxamide]",123,,290,,95.6,,,
"COc1ccc(Cl)c(-c2cc(Cl)ncc2S(=O)(=O)N2CCC(F)(C(=O)N[C@H](C)/C=C\S(C)(=O)=O)CC2)c1 [Compound 217, (R,Z)-1-((6-chloro-4-(2-chloro-5-methoxyphenyl)pyridin-3-yl)sulfonyl)-4-fluoro-N-(4-(methylsulfonyl)but-3-en-2-yl)piperidine-4-carboxamide]",953,,1450,980,74.6,,,
"C[C@H](/C=C/S(C)(=O)=O)NC(=O)[C@@]1(F)CCCN(C(=O)[C@H]2CN(CC(F)(F)F)C[C@H]2c2c(F)cccc2Cl)CC1 [Compound 296, (R)-1-((3R,4R)-4-(2-chloro-6-fluorophenyl)-1-(2,2,2-trifluoroethyl)pyrrolidine-3-carbonyl)-4-fluoro-N-((R,E)-4-(methylsulfonyl)but-3-en-2-yl)azepane-4-carboxamide]",642,,400,,69.4,,,
"C[C@@H](/C=C\S(C)(=O)=O)NC(=O)[C@@]1(F)CCCN(C(=O)[C@H]2CN(CC(F)(F)F)C[C@H]2c2c(F)cccc2Cl)CC1 [Compound 297, (R)-1-((3R,4R)-4-(2-chloro-6-fluorophenyl)-1-(2,2,2-trifluoroethyl)pyrrolidine-3-carbonyl)-4-fluoro-N-((S,Z)-4-(methylsulfonyl)but-3-en-2-yl)azepane-4-carboxamide]",1500,,910,,87.6,,,

# Second part, led by results:
IC50 [1] [nM],IC50 [2] [nM],IC50 (PIK3CA) [nM],IC50 (PIK3CA_C242) [nM],SMILES,Emax [1] [%],Emax [2] [%],"absolute inhibition of pAKT ([1]; H358 cell line, internal standard, variation between runs)","absolute inhibition of pAKT ([2]; FaDu cell line, internal standard, variation between runs)"
396,428,650,,"C[C@H](/C=C\S(C)(=O)=O)NC(=O)[C@@]1(F)CCCN(C(=O)[C@H]2CN(Cc3ccccc3)C[C@H]2c2ccccc2Cl)CC1 (single isomer, unassigned) [Compound 305, (R)-1-((3*R,4*R)-1-benzyl-4-(2-chlorophenyl)pyrrolidine-3-carbonyl)-4-fluoro-N-((R,Z)-4-(methylsulfonyl)but-3-en-2-yl)azepane-4-carboxamide]",90.7,94.3,,
263,334,310,,"C[C@H](/C=C\S(C)(=O)=O)NC(=O)[C@@]1(F)CCCN(C(=O)[C@@H]2CCN(CC(F)(F)F)C[C@H]2c2ccccc2Cl)CC1 (single isomer, unassigned) [Compound 306, (R)-1-((3*R,4*R)-3-(2-chlorophenyl)-1-(2,2,2-trifluoroethyl)piperidine-4-carbonyl)-4-fluoro-N-((R,Z)-4-(methylsulfonyl)but-3-en-2-yl)azepane-4-carboxamide]",88,93,,
408,580,850,,"C[C@H](/C=C\S(C)(=O)=O)NC(=O)[C@@]1(F)CCCN(C(=O)[C@H]2CN(CC(F)(F)F)CC[C@@H]2c2ccccc2Cl)CC1 (single isomer, unassigned) [Compound 308, (R)-1-((3*R,4*S)-4-(2-chlorophenyl)-1-(2,2,2-trifluoroethyl)piperidine-3-carbonyl)-4-fluoro-N-((R,Z)-4-(methylsulfonyl)but-3-en-2-yl) azepane-4-carboxamide]",91,93.4,,
276,,390,,"C[C@H](/C=C\S(C)(=O)=O)NC(=O)[C@@]1(F)CCCN(C(=O)N2CCN(CC(F)(F)F)C[C@H]2c2ccccc2Cl)CC1 (single isomer, unassigned) [Compound 309, (R)-1-((*R)-2-(2-chlorophenyl)-4-(2,2,2-trifluoroethyl)piperazine-1-carbonyl)-4-fluoro-N—((R,Z)-4-(methylsulfonyl)but-3-en-2-yl)azepane-4-carboxamide]",91.8,,,
622,,1100,,"C[C@H](/C=C\S(C)(=O)=O)NC(=O)C1(F)CCN(C(=O)[C@H]2CN(CC(F)(F)F)C[C@H]2c2ccccc2Cl)C1 (stereo partly drawn) [Compound 314, 1-((3R,4R)-4-(2-chlorophenyl)-1-(2,2,2-trifluoroethyl)pyrrolidine-3-carbonyl)-3-fluoro-N-((R,Z)-4-(methylsulfonyl)but-3-en-2-yl)pyrrolidine-3-carboxamide]",100,,,
